This passage reports IC50 results from patent US11260049B2, “TRPV4 antagonists” (GlaxoSmithKline Intellectual Property (No. 2) Limited, priority 2016, dated 2022).

Counter-ions that a name gives are not always drawn.

Sequence of human TRPV4 (Q9HBA0 whole entry): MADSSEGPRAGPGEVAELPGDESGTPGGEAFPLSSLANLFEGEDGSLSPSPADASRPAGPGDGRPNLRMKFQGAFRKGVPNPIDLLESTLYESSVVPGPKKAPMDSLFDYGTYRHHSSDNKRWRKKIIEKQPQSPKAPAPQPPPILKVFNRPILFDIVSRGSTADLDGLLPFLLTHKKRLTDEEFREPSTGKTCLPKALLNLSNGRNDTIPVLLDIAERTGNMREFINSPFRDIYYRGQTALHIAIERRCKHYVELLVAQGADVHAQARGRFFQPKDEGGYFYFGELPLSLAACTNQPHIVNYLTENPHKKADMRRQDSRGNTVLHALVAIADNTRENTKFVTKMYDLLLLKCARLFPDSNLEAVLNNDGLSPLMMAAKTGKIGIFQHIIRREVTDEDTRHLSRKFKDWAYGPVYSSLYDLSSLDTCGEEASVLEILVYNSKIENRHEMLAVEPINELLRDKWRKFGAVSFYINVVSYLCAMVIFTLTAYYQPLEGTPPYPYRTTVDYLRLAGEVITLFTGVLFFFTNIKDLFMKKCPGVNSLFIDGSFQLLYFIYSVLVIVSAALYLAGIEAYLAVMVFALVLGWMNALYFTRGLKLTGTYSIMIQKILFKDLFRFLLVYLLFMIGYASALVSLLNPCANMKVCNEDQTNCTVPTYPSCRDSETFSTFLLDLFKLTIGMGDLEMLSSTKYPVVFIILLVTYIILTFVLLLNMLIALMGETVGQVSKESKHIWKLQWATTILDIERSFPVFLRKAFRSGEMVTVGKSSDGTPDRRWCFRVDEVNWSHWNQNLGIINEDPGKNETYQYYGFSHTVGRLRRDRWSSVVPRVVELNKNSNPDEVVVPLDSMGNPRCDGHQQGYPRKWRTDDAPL

The target of this experiment is human TRPV4 (Homo sapiens (Human), UniProt Q9HBA0). In words: FLIPR assay for hTRPV4 expressed in BHK cells. It counts as cell-based. The settings on record: inhibition of Agonist Compound (EC80)-induced calcium signal; BHK/AC9 cells expressing human TRPV4; read-out: IC50. The method, then: FLIPR Assay for hTRPV4 Expressed in BHK Cells:
TRPV4 channel activation results in an influx of divalent and monovalent cations including calcium. The resulting changes in intracellular calcium were monitored using a calcium specific fluorescent dye Fluo-4 (MDS Analytical Technologies). BHK/AC9 cells transduced with BacMam virus expressing the human TRPV4 gene at a MOI of 78 were plated in a 384 well poly-D lysine coated plate (15,000 cells/well in 50 μL culture medium containing DMEM/F12 with 15 mM HEPES, 10% FBS, 1% Penicillin-Streptomycin and 1% L-glutamine). Cells were incubated for 24 hours at 37° C. and 5% CO2. Culture medium was then aspirated using a Tecan plate-washer and replaced with 20 μL/well of dye loading buffer: HBSS, 500 μM Brilliant Black (MDS Analytical Technologies), and 2 μM Fluo-4 AM. Dye loaded plates were then incubated in the dark at room temperature for 1˜1.5 hours.
Usually IC50 stands for the concentration that inhibits the measured activity by half. For `N#Cc1ccc(S(=O)(=O)N2C[C@H](S(=O)(=O)c3ccc(C#N)c(F)c3)[C@](O)(CO)C2)c(Cl)c1` [Example 10, 4-(((3S,4R)-1-((2-chloro-4-cyanophenyl)sulfonyl)-4-hydroxy-4-(hydroxymethyl)pyrrolidin-3-yl)sulfonyl)-2-fluorobenzonitrile], the IC50 lay in the range of 0.0001 to 0.01 µM.

As for `N#Cc1ccc(S(=O)(=O)N2C[C@H](S(=O)(=O)c3ccc(Cl)cc3)[C@](O)(CO)C2)c(C(F)(F)F)c1` [Example 19, 4-(((3R,4S)-4-((4-chlorophenyl)sulfonyl)-3-hydroxy-3-(hydroxymethyl)pyrrolidin-1-yl)sulfonyl)-3-(trifluoromethyl)benzonitrile], the IC50 lay within 0.0001 to 0.01 µM.

In the case of `N#Cc1ccc(S(=O)(=O)[C@H]2CN(S(=O)(=O)c3ccc(OC(F)(F)F)cc3Cl)C[C@@]2(O)CO)cc1F` [Example 15, 4-(((3S,4R)-1-((2-chloro-4-(trifluoromethoxy)phenyl)sulfonyl)-4-hydroxy-4-(hydroxymethyl)pyrrolidin-3-yl)sulfonyl)-2-fluorobenzonitrile], the IC50 was 0.01 to 0.1 µM. As to `CCCc1ccc(S(=O)(=O)[C@H]2CN(S(=O)(=O)c3ccc(C#N)cc3Cl)C[C@@]2(O)CO)cc1` [Example 106, 3-chloro-4-(((3R,4S)-3-hydroxy-3-(hydroxymethyl)-4-((4-propylphenyl)sulfonyl)pyrrolidin-1-yl)sulfonyl)benzonitrile], the half-maximal inhibitory concentration (IC50) fell in the range of 0.01 to 0.1 µM.

In the case of `N#Cc1ccc(S(=O)(=O)[C@H]2CN(S(=O)(=O)c3ccc(Br)cc3Cl)C[C@@]2(O)CO)cc1` [Example 34, 4-(((3S,4R)-1-((4-bromo-2-chlorophenyl)sulfonyl)-4-hydroxy-4-(hydroxymethyl)pyrrolidin-3-yl)sulfonyl)benzonitrile], the half-maximal inhibitory concentration (IC50) lay within 0.0001 to 0.01 µM.

Regarding `CNC[C@]1(O)CN(S(=O)(=O)c2ccc(C#N)cc2Cl)C[C@@H]1S(=O)(=O)c1ccc(Cl)cc1` [Example 124, 3-chloro-4-(((3S,4S)-4-((4-chlorophenyl)sulfonyl)-3-hydroxy-3-((methylamino)methyl)pyrrolidin-1-yl)sulfonyl)benzonitrile], the IC50 was in the range of 0.0001 to 0.01 µM. Consider `N#Cc1ccc(S(=O)(=O)N2C[C@H](S(=O)(=O)c3ccc(Cl)cc3)[C@@](O)(CNCC(F)(F)F)C2)c(Cl)c1` [Example 128, 3-chloro-4-(((3R,4S)-4-((4-chlorophenyl)sulfonyl)-3-hydroxy-3-(((2,2,2-trifluoroethyl)amino)methyl)pyrrolidin-1-yl)sulfonyl)benzonitrile], for which the IC50 was in the range of 0.01 to 0.1 µM. For `COc1cc(Cl)ccc1S(=O)(=O)N1C[C@H](S(=O)(=O)c2ccc(C#N)cc2)[C@](O)(CO)C1` [Example 51, 4-(((3S,4R)-1-((4-chloro-2-methoxyphenyl)sulfonyl)-4-hydroxy-4-(hydroxymethyl)pyrrolidin-3-yl)sulfonyl)benzonitrile], the IC50 was 0.01 to 0.1 µM. As to `O=S(=O)(c1ccc(C(F)(F)F)cn1)[C@H]1CN(S(=O)(=O)c2ccc(Cl)cc2Cl)C[C@@]1(O)CO` [Example 116, (3R,4S)-1-((2,4-dichlorophenyl)sulfonyl)-3-(hydroxymethyl)-4-((5-(trifluoromethyl)pyridin-2-yl)sulfonyl)pyrrolidin-3-ol], the IC50 is 0.01 to 0.1 µM.

As for `N#Cc1ccc(S(=O)(=O)[C@H]2CN(S(=O)(=O)c3ccc(Cl)cc3C(F)(F)F)C[C@@]2(O)CO)cc1` [Example 25, 4-(((3S,4R)-1-((4-chloro-2-(trifluoromethyl)phenyl)sulfonyl)-4-hydroxy-4-(hydroxymethyl)pyrrolidin-3-yl)sulfonyl)benzonitrile], the IC50 was 0.0001 to 0.01 µM.

With `COC(=O)c1ccc(S(=O)(=O)[C@H]2CN(S(=O)(=O)c3ccc(Cl)cc3C(F)F)C[C@@]2(O)CO)cc1` [Example 64], the IC50 was in the range of 0.01 to 0.1 µM. `N#Cc1ccc(S(=O)(=O)N2C[C@H](S(=O)(=O)c3ccc(Cl)cn3)[C@@]3(CNCCO3)C2)c(Cl)c1` [Example 129, 3-chloro-4-(((4S,5R)-4-((5-chloropyridin-2-yl)sulfonyl)-6-oxa-2,9-diazaspiro[4.5]decan-2-yl)sulfonyl)benzonitrile, Hydrochloride]: the IC50 was 0.01 to 0.1 µM.
